Measurements: paper PMC6736568, “Discovery of Novel Anti-cryptosporidial Activities From Natural Products by in vitro High-Throughput Phenotypic Screening” (Frontiers in Microbiology, 2019)
Where a name gives a salt, the structure may show the parent alone. Read-outs that look alike come from different tables or passages of the source.

Columns and labels:
[1] = test system: Cryptosporidium parvum; test: qRT-PCR assay of the growth of C. parvum in vitro in HCT-8 host cells (primary and secondary screening, EC50); type: cell-based; conditions: Cryptosporidium parvum, HCT-8; for inhibition at 10 µM: primary screening at 10 uM, read-out: Inhibition (%)
[2] = test system: HCT-8 host cells (Hs18S)
[3] = in vitro
[4] = primary screening at 10 uM, treated vs control

SMILES | inhibition at 10 µM [1] [%] | Hs18S ΔCT [2, 4] | cytotoxicity at 10 µM [3] [%] | Hs18S ΔCT ([2]; human, 41 h, 10 μM) | cytotoxicity at 41 h, 10 µM ([3]; human) [%] | cytotoxicity at 41 h, 10 µM [3] [%] | inhibition at 3.3 µM ([1]; secondary screening at 3.3 uM, read-out: % Inhibition (3.3 uM)) [%]
CC1(C)C(=O)[C@@H]2C[C@@]3(O)C4=CC(=O)O[C@@H](c5ccoc5)[C@]4(C)CC[C@@H]3[C@@](C)(C2=O)[C@H]1CC(=O)O [8-HYDROX[…]] | -11 | 1.43 | 63 | – | – | – | –
CNc1ccccc1C(=O)N1CCc2c([nH]c3ccccc23)C1=O [RHETSININE] | -31.2 | – | – | 0.51 | 29.6 | – | –
CN[C@@H]1[C@@H](O)[C@@H](O[C@@H]2[C@@H](O)[C@H](O[C@H]3O[C@H]([C@@H](C)O)[C@@H](O)[C@H](O)[C@H]3N)[C@@H](N)C[C@H]2N)OC[C@]1(C)O [GENETICIN] | -26.1 | 0.07 | 4.9 | – | – | – | –
C[C@@H]1CC[C@H]2C(C)(C)[C@H]3C[C@@]12CC[C@@]3(C)O [CEDROL] | -4.53 | – | – | -0.11 | -7.7 | – | –
COc1ccc2c(c1)OC/C(=C/c1ccc(OC)c(OC)c1)C2=O [SAPPANONE A TRIMETHYL ETHER] | 3.07 | 0.23 | 14.7 | – | – | – | –
CC(C)CCC[C@@H](C)[C@H]1CC[C@H]2[C@@H]3CC[C@H]4CC(=O)CC[C@]4(C)[C@H]3CC[C@]12C [CHOLESTAN-3-ONE] | -36.7 | -0.48 | – | – | – | -39.9 | –
C[C@H](CCC(=O)O)[C@H]1CC[C@H]2[C@@H]3CC[C@@H]4CCCC[C@]4(C)[C@H]3CC[C@]12C [URSOCHOLANIC ACID] | 59.3 | -0.10 | – | – | – | -6.9 | –
COc1c(OC)c2occc2c2oc(=O)ccc12 [PIMPINELLIN] | 43.6 | – | – | 0.21 | 13.3 | – | –
C[C@]12CC[C@H](O)C[C@H]1CC[C@@H]1[C@@H]2C[C@@H](O)[C@]2(C)[C@@H](C3=CC(=O)OC3)CC[C@]12O [DIGOXIGENIN] | 95.6 | 0.33 | 19.2 | – | – | – | 69
COc1cc(O)ccc1C(C)=O [ISOPEONOL] | -12.8 | – | – | 0.03 | 2.3 | – | –
O=C(O)CCCCCCCCCCCC[C@@H]1C=CCC1 [CHAULMOOGRIC ACID] | -4.94 | – | – | -0.58 | -49.1 | – | –
COC(=O)[C@@H]1[C@H]2C[C@H]3c4[nH]c5ccccc5c4CCN3C[C@@H]2CC[C@@H]1O [YOHIMBINE HYDROCHLORIDE] | 5.49 | – | – | -0.45 | -36.5 | – | –
COc1cc(C/C=C/c2ccccc2)c(OC)cc1O [VIOLASTYRENE] | -23.6 | – | – | -0.30 | -23.3 | – | –
CC1(C)[C@@H](O)CC[C@]2(C)[C@H]3C(=O)C=C4[C@@H]5C[C@@](C)(C(=O)O)CC[C@]5(C)CC[C@@]4(C)[C@]3(C)CC[C@@H]12 [ENOXOLONE] | -8.81 | – | – | -0.07 | -5.3 | – | –
CC1=CC2C(CC1=O)C(C)=CCC2C(C)C (stereo not shown) [MUUROLLADIE-3-ONE] | -7.55 | – | – | -0.02 | -1.7 | – | –
NC[C@@H]1O[C@H](O[C@H]2[C@@H](O)[C@H](O[C@@H]3[C@@H](O)[C@H](N)C[C@H](N)[C@H]3O[C@H]3O[C@H](CO)[C@@H](O)[C@H](O)[C@H]3N)O[C@@H]2CO)[C@H](N)[C@@H](O)[C@@H]1O [PAROMOMYCIN SULFATE] | 19.7 | – | – | 0.08 | 5.5 | – | –
O=c1c(O)c(-c2ccc(O)cc2O)oc2cc(O)cc(O)c12 [MORIN] | 32.3 | -0.21 | -15.6 | – | – | – | –
CCc1ccc2c(O)c3c(cc2c1C(=O)OC)C(=O)c1c(O)ccc(O)c1C3=O [BISANHYDRORUTILANTINONE] | 24.5 | – | – | -0.16 | -12 | – | –
O=c1c(-c2ccc(O)cc2)coc2cc(O)ccc12 [DAIDZEIN] | 39.2 | – | – | 0.01 | 0.7 | – | –
COc1ccc2c(c1)O[C@H]1c3ccc(OC)cc3OC[C@@H]21 [HOMOPTEROCARPIN] | 5.57 | -0.01 | -0.7 | – | – | – | –
COc1ccc2c(c1OC)OC[C@@H](c1ccc(OC)c(OC)c1OC)C2 [DUARTIN, DIMETHYL ETHER] | -13.5 | – | – | -0.22 | -16.4 | – | –
COc1cc(O)c(C(C)=O)c(OC)c1 [XANTHOXYLIN] | -20.7 | – | – | 0.08 | 5.4 | – | –
C/C=C/c1ccc(OC)cc1 [ANETHOLE] | -5.3 | – | – | -0.08 | -5.8 | – | –
